Assay results taken from patent US8580794B2 (AbbVie Inc., priority 2009, dated 2013).

Target: GST-Bc1-2 (Homo sapiens, UniProt P10415)
Assay: Time Resolved-Fluorescence Resonance Energy Transfer (TR-FRET) Bcl-2 binding assay with F-Bak peptide probe
Details: GST-Bcl-2 1 nM, F-Bak probe 100 nM, Tb-anti-GST 1 nM; '<' = below limit of detection; read-out: TR-FRET Bcl-2 Binding Ki

GST-Bc1-2, sequence (P10415 whole entry): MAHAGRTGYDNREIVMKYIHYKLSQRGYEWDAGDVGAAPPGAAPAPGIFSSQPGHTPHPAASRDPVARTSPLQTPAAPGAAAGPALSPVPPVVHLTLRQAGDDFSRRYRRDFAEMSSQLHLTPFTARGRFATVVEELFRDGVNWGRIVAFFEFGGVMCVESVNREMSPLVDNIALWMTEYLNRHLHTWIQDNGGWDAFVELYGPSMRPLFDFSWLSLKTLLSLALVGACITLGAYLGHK

CC1(C)CCC(CN2CCN(c3ccc(C(=O)NS(=O)(=O)c4ccc(OCC5(F)CCOCC5)c(Cl)c4)c(Oc4cnc5[nH]ccc5c4)c3)CC2)=C(c2ccc(Cl)cc2)C1 [Example 286, N-({3-chloro-4-[(4-fluorotetrahydro-2H-pyran-4-yl)methoxy]phenyl}sulfonyl)-4-(4-{[2-(4-chlorophenyl)-4,4-dimethylcyclohex-1-en-1-yl]methyl}piperazin-1-yl)-2-(1H-pyrrolo[2,3-b]pyridin-5-yloxy)benzamide]
Ki: < 0.01 nM

CC1(C)CCC(CN2CCN(c3ccc(C(=O)NS(=O)(=O)c4cnc(OCC5CCC(F)(F)CC5)c(Cl)c4)c(Oc4cnc5[nH]ccc5c4)c3)CC2)=C(c2ccc(Cl)cc2)C1 [Example 287, N-({5-chloro-6-[(4,4-difluorocyclohexyl)methoxy]pyridin-3-yl}sulfonyl)-4-(4-{[2-(4-chlorophenyl)-4,4-dimethylcyclohex-1-en-1-yl]methyl}piperazin-1-yl)-2-(1H-pyrrolo[2,3-b]pyridin-5-yloxy)benzamide]
Ki: 0.081 nM

CC1(C)CCC(CN2CCN(c3ccc(C(=O)NS(=O)(=O)c4cnc(OCC5(F)CCN(C(CF)CF)CC5)c(C(F)(F)F)c4)c(Oc4cnc5[nH]ccc5c4)c3)CC2)=C(c2ccc(Cl)cc2)C1 [Example 288, 4-(4-{[2-(4-chlorophenyl)-4,4-dimethylcyclohex-1-en-1-yl]methyl}piperazin-1-yl)-N-{[6-{[1-(1,3-difluoropropan-2-yl)-4-fluoropiperidin-4-yl]methoxy}-5-(trifluoromethyl)pyridin-3-yl]sulfonyl}-2-(1H-pyrrolo[2,3-b]pyridin-5-yloxy)benzamide]
Ki: 0.251 nM

CC1(C)CCC(CN2CCN(c3ccc(C(=O)NS(=O)(=O)c4cnc(OCCC5CCCO5)c(Cl)c4)c(Oc4cnc5[nH]ccc5c4)c3)CC2)=C(c2ccc(Cl)cc2)C1 (stereo not shown) [Example 289, 4-(4-{[2-(4-chlorophenyl)-4,4-dimethylcyclohex-1-en-1-yl]methyl}piperazin-1-yl)-N-({5-chloro-6-[2-(tetrahydrofuran-2-yl)ethoxy]pyridin-3-yl}sulfonyl)-2-(1H-pyrrolo[2,3-b]pyridin-5-yloxy)benzamide]
Ki: 0.09 nM

CC1CN(c2ccc(C(=O)NS(=O)(=O)c3ccc(NCC4CCOCC4)c([N+](=O)[O-])c3)c(Oc3cnc4[nH]ccc4c3)c2)CCN1CC1=C(c2ccc(Cl)cc2)CC(C)(C)CC1 (stereo not shown) [Example 290, 4-(4-{[2-(4-chlorophenyl)-4,4-dimethylcyclohex-1-en-1-yl]methyl}-3-methylpiperazin-1-yl)-N-({3-nitro-4-[(tetrahydro-2H-pyran-4-ylmethyl)amino]phenyl}sulfonyl)-2-(1H-pyrrolo[2,3-b]pyridin-5-yloxy)benzamide]
Ki: < 0.01 nM

CC1(C)CCC(CN2CCN(c3ccc(C(=O)NS(=O)(=O)c4ccc(NCCCNC5CC5)c([N+](=O)[O-])c4)c(Oc4cnc5[nH]ccc5c4)c3)CC2)=C(c2ccc(Cl)cc2)C1 [Example 291, 4-(4-{[2-(4-chlorophenyl)-4,4-dimethylcyclohex-1-en-1-yl]methyl}piperazin-1-yl)-N-[(4-{[3-(cyclopropylamino)propyl]amino}-3-nitrophenyl)sulfonyl]-2-(1H-pyrrolo[2,3-b]pyridin-5-yloxy)benzamide]
Ki: < 0.01 nM

COCCOc1ncc(S(=O)(=O)NC(=O)c2ccc(N3CCN(CC4=C(c5ccc(Cl)cc5)CC(C)(C)CC4)CC3)cc2Oc2cnc3[nH]ccc3c2)cc1Cl [Example 292, N-{[5-chloro-6-(2-methoxyethoxy)pyridin-3-yl]sulfonyl}-4-(4-{[2-(4-chlorophenyl)-4,4-dimethylcyclohex-1-en-1-yl]methyl}piperazin-1-yl)-2-(1H-pyrrolo[2,3-b]pyridin-5-yloxy)benzamide]
Ki: 0.19 nM

CC1(C)CCC(CN2CCN(c3ccc(C(=O)NS(=O)(=O)c4cnc(OCC5CCOCC5)c(F)c4)c(Oc4cnc5[nH]ccc5c4)c3)CC2)=C(c2ccc(Cl)cc2)C1 [Example 293, 4-(4-{[2-(4-chlorophenyl)-4,4-dimethylcyclohex-1-en-1-yl]methyl}piperazin-1-yl)-N-{[5-fluoro-6-(tetrahydro-2H-pyran-4-ylmethoxy)pyridin-3-yl]sulfonyl}-2-(1H-pyrrolo[2,3-b]pyridin-5-yloxy)benzamide]
Ki: 0.093 nM

COCC(=O)N1CCC(COc2ccc(S(=O)(=O)NC(=O)c3ccc(N4CCN(CC5=C(c6ccc(Cl)cc6)CC(C)(C)CC5)CC4)cc3Oc3cnc4[nH]ccc4c3)cc2Cl)CC1 [Example 294, N-[(3-chloro-4-{[1-(methoxyacetyl)piperidin-4-yl]methoxy}phenyl)sulfonyl]-4-(4-{[2-(4-chlorophenyl)-4,4-dimethylcyclohex-1-en-1-yl]methyl}piperazin-1-yl)-2-(1H-pyrrolo[2,3-b]pyridin-5-yloxy)benzamide]
Ki: 0.046 nM

CN(C)CC(=O)N1CCC(COc2ccc(S(=O)(=O)NC(=O)c3ccc(N4CCN(CC5=C(c6ccc(Cl)cc6)CC(C)(C)CC5)CC4)cc3Oc3cnc4[nH]ccc4c3)cc2Cl)CC1 [Example 295, N-[(3-chloro-4-{[1-(N,N-dimethylglycyl)piperidin-4-yl]methoxy}phenyl)sulfonyl]-4-(4-{[2-(4-chlorophenyl)-4,4-dimethylcyclohex-1-en-1-yl]methyl}piperazin-1-yl)-2-(1H-pyrrolo[2,3-b]pyridin-5-yloxy)benzamide]
Ki: < 0.01 nM

CC1(C)CCC(CC2CCN(c3ccc(C(=O)NS(=O)(=O)c4ccc(NCC5CCOCC5)c([N+](=O)[O-])c4)c(Oc4cnc5[nH]ccc5c4)c3)CC2)C(c2ccc(Cl)cc2)C1 (stereo not shown) [Example 296, 4-(4-{[2-(4-chlorophenyl)-4,4-dimethylcyclohexyl]methyl}piperidin-1-yl)-N-({3-nitro-4-[(tetrahydro-2H-pyran-4-ylmethyl)amino]phenyl}sulfonyl)-2-(1H-pyrrolo[2,3-b]pyridin-5-yloxy)benzamide]
Ki: 0.512 nM

CC1(C)CCC(CN2CCN(c3ccc(C(=O)NS(=O)(=O)c4cnc(OCC5CCOCC5)c(C(F)(F)F)c4)c(Oc4cnc5[nH]ccc5c4)c3)CC2)=C(c2ccc(Cl)cc2)C1 [Example 297, 4-(4-{[2-(4-chlorophenyl)-4,4-dimethylcyclohex-1-en-1-yl]methyl}piperazin-1-yl)-2-(1H-pyrrolo[2,3-b]pyridin-5-yloxy)-N-{[6-(tetrahydro-2H-pyran-4-ylmethoxy)-5-(trifluoromethyl)pyridin-3-yl]sulfonyl}benzamide]
Ki: 0.174 nM

CC1(C)CCC(CN2CCN(c3ccc(C(=O)NS(=O)(=O)c4cnc(OC[C@H]5CC[C@H](O)CC5)c(Cl)c4)c(Oc4cnc5[nH]ccc5c4)c3)CC2)=C(c2ccc(Cl)cc2)C1 [Example 298, N-({5-chloro-6-[(trans-4-hydroxycyclohexyl)methoxy]pyridin-3-yl}sulfonyl)-4-(4-{[2-(4-chlorophenyl)-4,4-dimethylcyclohex-1-en-1-yl]methyl}piperazin-1-yl)-2-(1H-pyrrolo[2,3-b]pyridin-5-yloxy)benzamide]
Ki: < 0.01 nM

CC1(C)CCC(CN2CCN(c3ccc(C(=O)NS(=O)(=O)c4ccc(OCC5(F)CCOCC5)c(C#N)c4)c(Oc4cnc5[nH]ccc5c4)c3)CC2)=C(c2ccc(Cl)cc2)C1 [Example 299, 4-(4-{[2-(4-chlorophenyl)-4,4-dimethylcyclohex-1-en-1-yl]methyl}piperazin-1-yl)-N-({3-cyano-4-[(4-fluorotetrahydro-2H-pyran-4-yl)methoxy]phenyl}sulfonyl)-2-(1H-pyrrolo[2,3-b]pyridin-5-yloxy)benzamide]
Ki: 0.039 nM

CC1(C)CCC(CC2CCN(c3ccc(C(=O)NS(=O)(=O)c4cnc(OCC5(O)CCC(F)(F)CC5)c(Cl)c4)c(Oc4cnc5[nH]ccc5c4)c3)CC2)=C(c2ccc(Cl)cc2)C1 [Example 302, N-({5-chloro-6-[(4,4-difluoro-1-hydroxycyclohexyl)methoxy]pyridin-3-yl}sulfonyl)-4-(4-{[2-(4-chlorophenyl)-4,4-dimethylcyclohex-1-en-1-yl]methyl}piperidin-1-yl)-2-(1H-pyrrolo[2,3-b]pyridin-5-yloxy)benzamide]
Ki: 0.332 nM

CC1(C)CCC(CN2CCN(c3ccc(C(=O)NS(=O)(=O)c4ccc(OC[C@H]5CC[C@H](N6CCOCC6)CC5)c(Cl)c4)c(Oc4cnc5[nH]ccc5c4)c3)CC2)=C(c2ccc(Cl)cc2)C1 [Example 303, N-[(3-chloro-4-{[trans-4-(morpholin-4-yl)cyclohexyl]methoxy}phenyl)sulfonyl]-4-(4-{[2-(4-chlorophenyl)-4,4-dimethylcyclohex-1-en-1-yl]methyl}piperazin-1-yl)-2-(1H-pyrrolo[2,3-b]pyridin-5-yloxy)benzamide]
Ki: 0.044 nM

CC1(C)CCC(CN2CCN(c3ccc(C(=O)NS(=O)(=O)c4ccc(OC[C@H]5CC[C@H](O)CC5)c(Cl)c4)c(Oc4cnc5[nH]ccc5c4)c3)CC2)=C(c2ccc(Cl)cc2)C1 [Example 305, N-({3-chloro-4-[(trans-4-hydroxycyclohexyl)methoxy]phenyl}sulfonyl)-4-(4-{[2-(4-chlorophenyl)-4,4-dimethylcyclohex-1-en-1-yl]methyl}piperazin-1-yl)-2-(1H-pyrrolo[2,3-b]pyridin-5-yloxy)benzamide]
Ki: 0.033 nM

CC1(C)CCC(CN2CCN(c3ccc(C(=O)NS(=O)(=O)c4ccc(NCC5CCOCC5)c(Cl)c4)c(Oc4cnc5[nH]ccc5c4)c3)CC2)=C(c2ccc(Cl)cc2)C1 [Example 306, 4-(4-{[2-(4-chlorophenyl)-4,4-dimethylcyclohex-1-en-1-yl]methyl}piperazin-1-yl)-N-({3-chloro-4-[(tetrahydro-2H-pyran-4-ylmethyl)amino]phenyl}sulfonyl)-2-(1H-pyrrolo[2,3-b]pyridin-5-yloxy)benzamide]
Ki: 2.07 nM

CC1(C)CCC(CN2CCN(c3ccc(C(=O)NS(=O)(=O)c4ccc(OCC5(F)CCOCC5)c(C(F)(F)F)c4)c(Oc4cnc5[nH]ccc5c4)c3)CC2)=C(c2ccc(Cl)cc2)C1 [Example 307, 4-(4-{[2-(4-chlorophenyl)-4,4-dimethylcyclohex-1-en-1-yl]methyl}piperazin-1-yl)-N-({4-[(4-fluorotetrahydro-2H-pyran-4-yl)methoxy]-3-(trifluoromethyl)phenyl}sulfonyl)-2-(1H-pyrrolo[2,3-b]pyridin-5-yloxy)benzamide]
Ki: 0.13 nM
